# Assay results reported in patent US10920278B1, “Method to treat hypotension using vasopressin in certain genotypes” (Par Pharmaceutical, Inc., priority 2020, dated 2021).
# Read-outs that look alike come from different tables or passages of the source.
# How the values were obtained:
# [1] = cited from earlier work
# [2] = septic shock patients, VASST trial, Nakada et al.; cited from earlier work
# [3] = cited from earlier work; remark: listed apart in the source
# [4] = Table 1 overview of parameters, infusion rate 0.03 units/minute, TT vs AA/AT genotype patients; format: in vivo, human; conditions: for clearance / level at time molar: human, in vivo, 0.03 units/minute; for clearance: intravenous; for level at time molar: iv
# [5] = Phase 1 open-label parallel-group PK study of IV vasopressin in healthy volunteers by LNPEP rs4869317 genotype; format: in vivo, human; conditions: for Css (Max) / Css (Min) / level at 1 h / clearance: plasma; for level at 1 h / clearance: both sexes, human, iv; for level at 1 h: 200 uU/kg/min; for clearance: 200 μU/kg/min
# Excerpt: The primary objective of this study was to evaluate differences in plasma clearance of vasopressin following IV administration in subjects with the TT genotype (rs4869317) versus those with the AA/AT genotype of the LNPEP gene in healthy volunteers. The secondary objective of the study was to assess the safety and tolerability of vasopressin in healthy volunteers. This was a Phase 1, open-label, 2-arm, parallel group, PK study in healthy volunteers. Approximately 48 healthy male and female subjects were enrolled at a single center in the United States to achieve at least 19 evaluable subjects per genotype group. The study comprised a screening period, a treatment period, and a follow-up phone call.
# Subjects were screened for general good health over a 28-day period. Screening evaluations included medical history, physical examination, vital sign measurement, 12-lead electrocardiogram (ECG), and clinical laboratory testing (hematology, serum chemistry, and urinalysis). In addition, subjects were advised of the diet and medication restrictions and agreed to conform to them.
# As a part of screening, the LNPEP genotype (TT or AA/AT) of the subjects was determined. The target enrollment was 24 subjects with the SNP rs4869317 (TT genotype). As the control group, 24 subjects with the AA/AT genotype were approximately matched with respect to age (±5 years), sex, race, BMI (±5%), and creatinine clearance (±10 mL/min). An effort was made to enroll at least 4 female subjects in each genotype group. Subjects were matched during screening and confirmed at check-in on Day-2. Subjects were enrolled for participation in 2 genotype groups of a minimum size of 24 subjects per genotype group in order to meet a minimum of 19 evaluable subjects per genotype group.
# A dose of 200 μU/kg/min vasopressin (VASOSTRICT®) was used for this healthy volunteer PK study. The dose roughly corresponds to 0.012 units/minute for a 60 kg individual. This value is approximately equal to the starting dose of 0.01 units/minute in the VASOSTRICT® prescribing information. Clearance in healthy volunteers (15 mL/min/kg) at the vasopressin dose of 200 μU/kg/minute planned for study is within this range. Blood samples for PK analysis were drawn at baseline and 5, 15, 30, and 60 minutes following infusion. If TT genotyped subjects cleared vasopressin at a faster rate, patients of this genotype may benefit from an altered dosing regimen.
# Subjects who meet all inclusion and none of the exclusion criteria received vasopressin continuous IV infusion at a constant rate of 200 μU/kg/min for 60 minutes on Day 1. To minimize orthostatic hypotension, subjects remained supine throughout the duration of the infusion. Eligible subjects were admitted to the clinical unit on Day-2, i.e., two days prior to dosing, to ensure adequate hydration and to standardize sodium intake. Vasopressin levels were also be determined during this period. Subjects remained confined until completion of all study procedures. While in the clinical unit, subjects were fed a standard diet with a dietary sodium intake limited to 2300 mg per day and drank no less than 1.0 to 1.5 L of water per day in addition to usual consumed beverages.
# Study drug was administered on the morning of Day 1 under standard fasting conditions (minimum of 10-hour overnight fast). Passive telemetry monitoring occurred during the infusion. One hour prior to dosing, each subject was given an oral water load of 20 mL/kg to be consumed within 30 minutes. Thereafter, a second 20 mL/kg volume of water was made available. Subjects continued to drink water at regular intervals through the next 90 minutes (end of the infusion). Subjects were asked to pass urine spontaneously within 15 minutes prior to the start of infusion. The fasting restriction continued until the end of the infusion.
# Subjects remained in the clinical unit after the end of the infusion and were discharged the following day (Day 2). […]
# [6] = AA/AT (n=12) vs TT (n=12), 60 minute continuous IV infusion 200 μU/kg/min
# [7] = AA/AT genotype healthy volunteers (12 subjects), 200 μU/kg/min continuous IV infusion for 60 minutes
# [8] = TT compared with AA/AT genotype
# [9] = TT genotype healthy volunteers (12 subjects), 200 μU/kg/min continuous IV infusion for 60 minutes
structure (smiles),measurement,setting,value
"NC(=O)CC[C@@H]1NC(=O)[C@H](Cc2ccccc2)NC(=O)[C@H](Cc2ccc(O)cc2)NC(=O)[C@@H](N)CSSC[C@@H](C(=O)N2CCC[C@H]2C(=O)N[C@@H](CCCN=C(N)N)C(=O)NCC(N)=O)NC(=O)[C@H](CC(N)=O)NC1=O [vasopressin, Cyclo (1-6) L-Cysteinyl-L-Tyrosyl-L-Phenylalanyl-L-Glutaminyl-L-Asparaginyl-L-Cysteinyl-L-Prolyl-L-Arginyl-L-Glycinamide]",dose excreted unchanged in urine,[1]; VASOSTRICT prescribing information 2019,about 6%
same,apparent half-life,"[1]; VASOSTRICT prescribing information, at these levels",< 10 min
same,Clearance in healthy volunteers,[1]; vasopressin dose of 200 μU/kg/minute,15 mL/min/kg
same,"vasopressin clearance, TT vs AA or AT genotyped patients (in words)",[2],increase in vasopressin clearance
same,rates of serious adverse events in AA genotype patients (in words),"[3]; septic shock patients who received vasopressin, Anantasit et al.",significantly higher rates of serious adverse events
same,"AVP blood levels, TT/TA vs AA genotype (in words)","[3]; septic shock patients, Anantasit et al. FIG. 2",statistically significant higher AVP blood levels
same,% change in the pharmacokinetic parameters in AA/AT genotype patients vs. TT genotype patients,[4],<33%
same,% increase in clearance in AA/AT genotype patients vs. TT genotype patients,[4],≥46%
same,clearance,[4]; read-out: Clearance in AA/AT genotype patients,28.7 mL/min/kg
same,clearance,[4]; read-out: Clearance in TT genotype patients,19.7 mL/min/kg
same,level at time molar,[4]; read-out: Concentration at steady state in AA/AT genotype patients,3.17 pM
same,level at time molar,[4]; read-out: Concentration at steady state in TT genotype patients,4.7 pM
same,higher plasma clearance in AA/AT than TT rs4869317 genotype,[5]; [6],25.5%
same,lower steady state concentration in AA/AT than TT rs4869317 genotype,[5]; [6],21.42%
same,Css (Max),[5]; [7],0.0414 ng/mL
same,Css (Min),[5]; [7],0.0101 ng/mL
same,"vasopressin clearance, TT vs AA/AT genotyped patients (in words)",[5]; [8],lower vasopressin clearance
same,"vasopressin plasma concentrations, TT vs AA/AT genotyped patients (in words)",[5]; [8],higher vasopressin plasma concentrations
same,Css (Max),[5]; [9],0.0861 ng/mL
same,Css (Min),[5]; [9],0.0171 ng/mL
same,mean clearance in TT patients less than that of AA/AT patients,[5]; TT vs AA/AT genotype,about 20%
same,mean steady state plasma concentration in TT patients higher than that of AA/AT patients,[5]; TT vs AA/AT genotype,about 27.4%
same,level at 1 h,"[5]; AA/AT genotype healthy volunteers (12 subjects), 200 μU/kg/min continuous IV infusion for 60 minutes, read-out: Css (Mean), concentration at steady state",0.025 ng/mL
same,level at 1 h,"[5]; AA/AT genotype healthy volunteers (12 subjects), 200 μU/kg/min continuous IV infusion for 60 minutes, read-out: Css (Median)",0.0251 ng/mL
same,level at 1 h,"[5]; AA/AT rs4869317 genotype (n = 12), 60 minute continuous IV infusion 200 μU/kg/min, read-out: Steady State Concentration at 60 minutes (Css)",0.025 ng/mL
same,level at 1 h,"[5]; TT genotype healthy volunteers (12 subjects), 200 μU/kg/min continuous IV infusion for 60 minutes, read-out: Css (Mean), concentration at steady state",0.0319 ng/mL
same,level at 1 h,"[5]; TT genotype healthy volunteers (12 subjects), 200 μU/kg/min continuous IV infusion for 60 minutes, read-out: Css (Median)",0.0271 ng/mL
same,level at 1 h,"[5]; TT rs4869317 genotype (n = 12), 60 minute continuous IV infusion 200 μU/kg/min, read-out: Steady State Concentration at 60 minutes (Css)",0.0319 ng/mL
same,clearance,"[5]; AA/AT genotype healthy volunteers (12 subjects), 200 μU/kg/min continuous IV infusion for 60 minutes, read-out: CL (Max)",37.3 mL/min/kg
same,clearance,"[5]; AA/AT genotype healthy volunteers (12 subjects), 200 μU/kg/min continuous IV infusion for 60 minutes, read-out: CL (Mean)",17.4 mL/min/kg
same,clearance,"[5]; AA/AT genotype healthy volunteers (12 subjects), 200 μU/kg/min continuous IV infusion for 60 minutes, read-out: CL (Median)",15 mL/min/kg
same,clearance,"[5]; AA/AT genotype healthy volunteers (12 subjects), 200 μU/kg/min continuous IV infusion for 60 minutes, read-out: CL (Min)",9.1 mL/min/kg
same,clearance,"[5]; AA/AT rs4869317 genotype (n = 12), 60 minute continuous IV infusion 200 μU/kg/min, read-out: Total Plasma Clearance (CL) Value",17.4 mL/min/kg
same,clearance,"[5]; TT genotype healthy volunteers (12 subjects), 200 μU/kg/min continuous IV infusion for 60 minutes, read-out: CL (Max)",22 mL/min/kg
same,clearance,"[5]; TT genotype healthy volunteers (12 subjects), 200 μU/kg/min continuous IV infusion for 60 minutes, read-out: CL (Mean)",13.8 mL/min/kg
same,clearance,"[5]; TT genotype healthy volunteers (12 subjects), 200 μU/kg/min continuous IV infusion for 60 minutes, read-out: CL (Median)",14 mL/min/kg
same,clearance,"[5]; TT genotype healthy volunteers (12 subjects), 200 μU/kg/min continuous IV infusion for 60 minutes, read-out: CL (Min)",4.4 mL/min/kg
same,clearance,"[5]; TT rs4869317 genotype (n = 12), 60 minute continuous IV infusion 200 μU/kg/min, read-out: Total Plasma Clearance (CL) Value",13.8 mL/min/kg
